Data taken from the supplement of paper PMC10307832.

How the values were obtained:
Experiment in all cases: relative viability (nuclei count vs DMSO), 5 days (fraction); higher = more cells survive
201T = test system: 201T
Method in brief: (§1)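 Lung cancer cell lines in 1536-well plates got either a single drug or a fixed anchor-drug dose together with five library-drug doses (not always all listed) in √10 steps, by pin tool, on the day after seeding. Nuclei were counted after 5 days, and relative viability is the treated-to-vehicle ratio of nuclei counts. Values are medians of duplicate plates.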

COR-L23 = test system: COR-L23
Method in brief: as §1

ChaGo-K-1 = test system: ChaGo-K-1
Method in brief: as §1

HARA = test system: HARA
Method in brief: as §1

HCC-15 = test system: HCC-15
Method in brief: as §1

HCC-366 = test system: HCC-366
Method in brief: as §1

HCC-78 = test system: HCC-78
Method in brief: as §1

LCLC-97TM1 = test system: LCLC-97TM1
Method in brief: as §1

LK-2 = test system: LK-2
Method in brief: as §1

LOU-NH91 = test system: LOU-NH91
Method in brief: as §1

NCI-H1355 = test system: NCI-H1355
Method in brief: as §1

NCI-H1650 = test system: NCI-H1650
Method in brief: as §1

NCI-H1734 = test system: NCI-H1734
Method in brief: as §1

NCI-H1792 = test system: NCI-H1792
Method in brief: as §1

NCI-H1975 = test system: NCI-H1975
Method in brief: as §1

NCI-H1993 = test system: NCI-H1993
Method in brief: as §1

NCI-H2085 = test system: NCI-H2085
Method in brief: as §1

NCI-H2405 = test system: NCI-H2405
Method in brief: as §1

NCI-H3122 = test system: NCI-H3122
Method in brief: as §1

NCI-H460 = test system: NCI-H460
Method in brief: as §1

NCI-H520 = test system: NCI-H520
Method in brief: as §1

NCI-H838 = test system: NCI-H838
Method in brief: as §1

SK-LU-1 = test system: SK-LU-1
Method in brief: as §1

## C=C1C(=O)O[C@@H](CCCCCCCC)[C@@H]1C(=O)O [C-75] + Nc1nc2[nH]cc(CCc3ccc(C(=O)N[C@@H](CCC(=O)O)C(=O)O)cc3)c2c(=O)[nH]1 [Pemetrexed] (partner 0.2 µM)
201T; first compound 0.08 µM
  relative viability: 0.337
201T; first compound 0.253 µM
  relative viability: 0.323
201T; first compound 0.8 µM
  relative viability: 0.296
201T; first compound 2.53 µM
  relative viability: 0.311
201T; first compound 8 µM
  relative viability: 0.308
COR-L23; first compound 0.08 µM
  relative viability: 0.197
COR-L23; first compound 0.253 µM
  relative viability: 0.197
COR-L23; first compound 0.8 µM
  relative viability: 0.2
COR-L23; first compound 2.53 µM
  relative viability: 0.2
COR-L23; first compound 8 µM
  relative viability: 0.198
ChaGo-K-1; first compound 0.08 µM
  relative viability: 0.265
ChaGo-K-1; first compound 0.253 µM
  relative viability: 0.259
ChaGo-K-1; first compound 0.8 µM
  relative viability: 0.239
ChaGo-K-1; first compound 2.53 µM
  relative viability: 0.243
ChaGo-K-1; first compound 8 µM
  relative viability: 0.254
HARA; first compound 0.08 µM
  relative viability: 0.273
HARA; first compound 0.253 µM
  relative viability: 0.254
HARA; first compound 0.8 µM
  relative viability: 0.233
HARA; first compound 2.53 µM
  relative viability: 0.222
HARA; first compound 8 µM
  relative viability: 0.299
HCC-15; first compound 0.08 µM
  relative viability: 0.246
HCC-15; first compound 0.253 µM
  relative viability: 0.239
HCC-15; first compound 0.8 µM
  relative viability: 0.203
HCC-15; first compound 2.53 µM
  relative viability: 0.208
HCC-15; first compound 8 µM
  relative viability: 0.223
HCC-366; first compound 0.08 µM
  relative viability: 0.156
HCC-366; first compound 0.253 µM
  relative viability: 0.183
HCC-366; first compound 0.8 µM
  relative viability: 0.149
HCC-366; first compound 2.53 µM
  relative viability: 0.22
HCC-366; first compound 8 µM
  relative viability: 0.188
HCC-78; first compound 0.08 µM
  relative viability: 0.829
HCC-78; first compound 0.253 µM
  relative viability: 0.902
HCC-78; first compound 0.8 µM
  relative viability: 0.839
HCC-78; first compound 8 µM
  relative viability: 0.893
LCLC-97TM1; first compound 0.08 µM
  relative viability: 0.197
LCLC-97TM1; first compound 0.253 µM
  relative viability: 0.195
LCLC-97TM1; first compound 0.8 µM
  relative viability: 0.177
LCLC-97TM1; first compound 2.53 µM
  relative viability: 0.129
LCLC-97TM1; first compound 8 µM
  relative viability: 0.145
LK-2; first compound 0.08 µM
  relative viability: 0.214
LK-2; first compound 0.253 µM
  relative viability: 0.301
LK-2; first compound 0.8 µM
  relative viability: 0.215
LK-2; first compound 2.53 µM
  relative viability: 0.2
LK-2; first compound 8 µM
  relative viability: 0.246
LOU-NH91; first compound 0.08 µM
  relative viability: 0.308
LOU-NH91; first compound 0.253 µM
  relative viability: 0.362
LOU-NH91; first compound 0.8 µM
  relative viability: 0.386
LOU-NH91; first compound 8 µM
  relative viability: 0.378
NCI-H1355; first compound 0.08 µM
  relative viability: 1.01
NCI-H1355; first compound 0.253 µM
  relative viability: 1.04
NCI-H1355; first compound 0.8 µM
  relative viability: 1.05
NCI-H1355; first compound 2.53 µM
  relative viability: 1.02
NCI-H1355; first compound 8 µM
  relative viability: 0.974
NCI-H1650; first compound 0.08 µM
  relative viability: 0.365
NCI-H1650; first compound 0.253 µM
  relative viability: 0.401
NCI-H1650; first compound 0.8 µM
  relative viability: 0.384
NCI-H1650; first compound 8 µM
  relative viability: 0.372
NCI-H1734; first compound 0.08 µM
  relative viability: 0.382
NCI-H1734; first compound 0.253 µM
  relative viability: 0.396
NCI-H1734; first compound 0.8 µM
  relative viability: 0.41
NCI-H1734; first compound 2.53 µM
  relative viability: 0.359
NCI-H1734; first compound 8 µM
  relative viability: 0.361
NCI-H1792; first compound 0.08 µM
  relative viability: 0.816
NCI-H1792; first compound 0.253 µM
  relative viability: 0.92
NCI-H1792; first compound 0.8 µM
  relative viability: 0.882
NCI-H1792; first compound 2.53 µM
  relative viability: 0.481
NCI-H1792; first compound 8 µM
  relative viability: 0.678
NCI-H1975; first compound 0.08 µM
  relative viability: 0.281
NCI-H1975; first compound 0.253 µM
  relative viability: 0.287
NCI-H1975; first compound 0.8 µM
  relative viability: 0.262
NCI-H1975; first compound 2.53 µM
  relative viability: 0.264
NCI-H1975; first compound 8 µM
  relative viability: 0.292
NCI-H1993; first compound 0.08 µM
  relative viability: 0.564
NCI-H1993; first compound 0.253 µM
  relative viability: 0.716
NCI-H1993; first compound 0.8 µM
  relative viability: 0.541
NCI-H1993; first compound 2.53 µM
  relative viability: 0.652
NCI-H1993; first compound 8 µM
  relative viability: 0.478
NCI-H2085; first compound 0.08 µM
  relative viability: 0.875
NCI-H2085; first compound 0.253 µM
  relative viability: 0.738
NCI-H2085; first compound 0.8 µM
  relative viability: 0.857
NCI-H2085; first compound 2.53 µM
  relative viability: 0.788
NCI-H2085; first compound 8 µM
  relative viability: 0.902
NCI-H2405; first compound 0.08 µM
  relative viability: 1
NCI-H2405; first compound 0.253 µM
  relative viability: 0.763
NCI-H2405; first compound 0.8 µM
  relative viability: 1.12
NCI-H2405; first compound 2.53 µM
  relative viability: 0.605
NCI-H2405; first compound 8 µM
  relative viability: 1.01
NCI-H3122; first compound 0.08 µM
  relative viability: 0.2
NCI-H3122; first compound 0.253 µM
  relative viability: 0.208
NCI-H3122; first compound 0.8 µM
  relative viability: 0.181
NCI-H3122; first compound 2.53 µM
  relative viability: 0.189
NCI-H3122; first compound 8 µM
  relative viability: 0.185
NCI-H460; first compound 0.08 µM
  relative viability: 0.0548
NCI-H460; first compound 0.253 µM
  relative viability: 0.0554
NCI-H460; first compound 0.8 µM
  relative viability: 0.0669
NCI-H460; first compound 2.53 µM
  relative viability: 0.0313
NCI-H460; first compound 8 µM
  relative viability: 0.0571
NCI-H520; first compound 0.08 µM
  relative viability: 0.62
NCI-H520; first compound 0.253 µM
  relative viability: 0.669
NCI-H520; first compound 0.8 µM
  relative viability: 0.643
NCI-H520; first compound 2.53 µM
  relative viability: 0.578
NCI-H520; first compound 8 µM
  relative viability: 0.55
NCI-H838; first compound 0.08 µM
  relative viability: 0.224
NCI-H838; first compound 0.253 µM
  relative viability: 0.265
NCI-H838; first compound 0.8 µM
  relative viability: 0.262
NCI-H838; first compound 2.53 µM
  relative viability: 0.18
NCI-H838; first compound 8 µM
  relative viability: 0.239
SK-LU-1; first compound 0.08 µM
  relative viability: 0.984
SK-LU-1; first compound 0.253 µM
  relative viability: 0.87
SK-LU-1; first compound 0.8 µM
  relative viability: 0.845
SK-LU-1; first compound 2.53 µM
  relative viability: 0.866
SK-LU-1; first compound 8 µM
  relative viability: 0.746
